How the values were obtained:
Test in all cases: Differential Scanning Fluorimetry (DSF) Tm shift
Assay type in all cases: binding
[1] = biological target: T1, PAK4 Catalytic Domain (Homo sapiens, UniProt O96013); settings: 2 µM protein, 10 µM inhibitor, average of 3 experiments, each in duplicate
T1 construct: For all of them, we expressed and purified the catalytic domain separately; His-tag; made in house; host or cells: Escherichia coli

[2] = biological target: T2, CHK2 Catalytic Domain (Homo sapiens, UniProt O96017); settings: 2 µM protein, 10 µM inhibitor, average of 3 experiments, each in duplicate
T2 construct: For all of them, we expressed and purified the catalytic domain separately; His-tag; made in house; host or cells: Escherichia coli

[3] = biological target: T3, FAK2 Catalytic Domain (Homo sapiens, UniProt Q14289); settings: 2 µM protein, 10 µM inhibitor, average of 3 experiments, each in duplicate
T3 construct: For all of them, we expressed and purified the catalytic domain separately; His-tag; made in house; host or cells: Escherichia coli

[4] = biological target: T4, PAK7 Catalytic Domain (Homo sapiens, UniProt Q9P286); settings: 2 µM protein, 10 µM inhibitor, average of 3 experiments, each in duplicate
T4 construct: For all of them, we expressed and purified the catalytic domain separately; His-tag; made in house; host or cells: Escherichia coli

[5] = biological target: T5, DMPK Catalytic Domain (Homo sapiens, UniProt Q09013); settings: 2 µM protein, 10 µM inhibitor, average of 3 experiments, each in duplicate
T5 construct: For all of them, we expressed and purified the catalytic domain separately; His-tag; made in house; host or cells: Escherichia coli
T5 sequence (Q09013 71-339 limits assumed): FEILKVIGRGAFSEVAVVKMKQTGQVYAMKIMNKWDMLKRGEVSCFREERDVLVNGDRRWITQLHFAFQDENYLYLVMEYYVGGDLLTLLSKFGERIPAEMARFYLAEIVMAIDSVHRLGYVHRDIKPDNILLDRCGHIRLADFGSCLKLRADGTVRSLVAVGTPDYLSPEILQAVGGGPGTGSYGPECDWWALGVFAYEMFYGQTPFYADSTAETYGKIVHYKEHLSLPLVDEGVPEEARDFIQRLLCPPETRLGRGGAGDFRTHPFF

[6] = biological target: T6, STK3 Catalytic Domain (Homo sapiens, UniProt Q13188); settings: 2 µM protein, 10 µM inhibitor, average of 3 experiments, each in duplicate
T6 construct: For all of them, we expressed and purified the catalytic domain separately; His-tag; made in house; host or cells: Escherichia coli
T6 sequence (Q13188 27-278 limits assumed): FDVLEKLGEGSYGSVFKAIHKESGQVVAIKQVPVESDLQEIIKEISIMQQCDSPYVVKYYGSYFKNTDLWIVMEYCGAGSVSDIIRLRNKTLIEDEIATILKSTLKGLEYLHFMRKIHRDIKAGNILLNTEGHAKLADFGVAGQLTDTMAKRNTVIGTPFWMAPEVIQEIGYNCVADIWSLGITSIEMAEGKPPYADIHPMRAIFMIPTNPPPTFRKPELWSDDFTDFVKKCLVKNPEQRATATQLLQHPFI

[7] = biological target: T7, STK3 Catalytic domain+SARAH (Homo sapiens, UniProt Q13188); settings: 2 µM protein, 10 µM inhibitor, average of 3 experiments, each in duplicate
T7 construct: for 8, we also made a longer version containing one or more additional domains; His-tag; made in house; host or cells: Escherichia coli
T7 sequence (Q13188 1-491): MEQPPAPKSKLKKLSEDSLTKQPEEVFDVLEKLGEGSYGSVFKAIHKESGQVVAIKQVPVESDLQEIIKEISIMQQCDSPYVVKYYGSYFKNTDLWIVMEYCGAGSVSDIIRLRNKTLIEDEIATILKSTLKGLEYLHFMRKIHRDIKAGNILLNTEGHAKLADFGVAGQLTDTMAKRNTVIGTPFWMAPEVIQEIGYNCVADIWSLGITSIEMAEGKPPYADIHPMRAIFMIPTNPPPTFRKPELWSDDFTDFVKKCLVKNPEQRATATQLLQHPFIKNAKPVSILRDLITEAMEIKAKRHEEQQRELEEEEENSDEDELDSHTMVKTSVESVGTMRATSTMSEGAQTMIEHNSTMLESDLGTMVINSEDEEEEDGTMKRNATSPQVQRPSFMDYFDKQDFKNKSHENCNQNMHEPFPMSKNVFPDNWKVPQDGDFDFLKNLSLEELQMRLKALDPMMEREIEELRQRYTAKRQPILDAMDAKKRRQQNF

[8] = biological target: T8, AKT3 Catalytic Domain (Homo sapiens, UniProt Q9Y243); settings: 2 µM protein, 10 µM inhibitor, average of 3 experiments, each in duplicate
T8 construct: AKT3 (Q9Y243); CD; His-tag; made in house; host or cells: Escherichia coli

[9] = biological target: T9, FES Catalytic Domain (Homo sapiens, UniProt P07332); settings: 2 µM protein, 10 µM inhibitor, average of 3 experiments, each in duplicate
T9 construct: For all of them, we expressed and purified the catalytic domain separately; His-tag; made in house; host or cells: Escherichia coli

[10] = biological target: T10, FES Catalytic Domain+SH2 (Homo sapiens, UniProt P07332); settings: 2 µM protein, 10 µM inhibitor, average of 3 experiments, each in duplicate
T10 construct: for 8, we also made a longer version containing one or more additional domains; His-tag; made in house; host or cells: Escherichia coli

[11] = biological target: T11, PAK4 Catalytic Domain+PBD (Homo sapiens, UniProt O96013); settings: 2 µM protein, 10 µM inhibitor, average of 3 experiments, each in duplicate
T11 construct: for 8, we also made a longer version containing one or more additional domains; His-tag; made in house; host or cells: Escherichia coli

[12] = biological target: T12, CDK2 + Cyclin A (Homo sapiens, UniProt P24941); settings: CDK2 + Cyclin A; 2 µM protein, 10 µM inhibitor; average of 3 experiments, each in duplicate
T12 construct: CDK2 (P24941); 1–299; His-tag; made in house; host or cells: Escherichia coli

[13] = biological target: SRC Catalytic Domain+SH2+SH3 (Homo sapiens, UniProt P12931); settings: 2 µM protein, 10 µM inhibitor, average of 3 experiments, each in duplicate
Sequence of SRC Catalytic Domain+SH2+SH3 (P12931 84-523 limits assumed): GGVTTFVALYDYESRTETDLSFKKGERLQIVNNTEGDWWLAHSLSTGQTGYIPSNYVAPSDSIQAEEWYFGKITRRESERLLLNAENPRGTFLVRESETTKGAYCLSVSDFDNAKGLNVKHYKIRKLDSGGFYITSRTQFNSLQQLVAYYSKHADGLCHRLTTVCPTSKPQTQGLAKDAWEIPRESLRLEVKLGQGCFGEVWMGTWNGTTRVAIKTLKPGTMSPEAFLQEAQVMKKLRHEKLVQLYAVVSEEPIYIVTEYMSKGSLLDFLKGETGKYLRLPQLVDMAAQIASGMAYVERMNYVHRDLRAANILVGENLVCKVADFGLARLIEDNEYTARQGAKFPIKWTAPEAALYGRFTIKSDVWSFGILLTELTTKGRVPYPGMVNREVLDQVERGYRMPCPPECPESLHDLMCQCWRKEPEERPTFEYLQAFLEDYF

T8 sequence (Q9Y243 122-479): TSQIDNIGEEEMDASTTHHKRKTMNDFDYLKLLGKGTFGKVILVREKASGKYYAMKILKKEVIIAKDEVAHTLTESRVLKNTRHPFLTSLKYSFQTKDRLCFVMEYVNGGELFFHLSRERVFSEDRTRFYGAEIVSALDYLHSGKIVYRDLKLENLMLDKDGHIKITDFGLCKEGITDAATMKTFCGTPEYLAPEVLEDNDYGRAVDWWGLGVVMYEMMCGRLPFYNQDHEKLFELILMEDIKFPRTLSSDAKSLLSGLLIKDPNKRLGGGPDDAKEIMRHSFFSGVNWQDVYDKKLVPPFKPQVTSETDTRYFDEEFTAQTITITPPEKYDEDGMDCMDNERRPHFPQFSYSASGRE
T1 sequence (O96013 321-572 limits assumed): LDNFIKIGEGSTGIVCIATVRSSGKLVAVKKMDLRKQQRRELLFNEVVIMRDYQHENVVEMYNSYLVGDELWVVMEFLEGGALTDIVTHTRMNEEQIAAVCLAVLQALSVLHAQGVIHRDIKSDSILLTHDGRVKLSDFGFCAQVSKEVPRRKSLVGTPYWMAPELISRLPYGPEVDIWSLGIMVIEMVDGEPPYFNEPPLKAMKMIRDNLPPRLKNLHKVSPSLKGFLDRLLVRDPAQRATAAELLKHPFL
T11 sequence (O96013 whole entry, the tested form may be a part): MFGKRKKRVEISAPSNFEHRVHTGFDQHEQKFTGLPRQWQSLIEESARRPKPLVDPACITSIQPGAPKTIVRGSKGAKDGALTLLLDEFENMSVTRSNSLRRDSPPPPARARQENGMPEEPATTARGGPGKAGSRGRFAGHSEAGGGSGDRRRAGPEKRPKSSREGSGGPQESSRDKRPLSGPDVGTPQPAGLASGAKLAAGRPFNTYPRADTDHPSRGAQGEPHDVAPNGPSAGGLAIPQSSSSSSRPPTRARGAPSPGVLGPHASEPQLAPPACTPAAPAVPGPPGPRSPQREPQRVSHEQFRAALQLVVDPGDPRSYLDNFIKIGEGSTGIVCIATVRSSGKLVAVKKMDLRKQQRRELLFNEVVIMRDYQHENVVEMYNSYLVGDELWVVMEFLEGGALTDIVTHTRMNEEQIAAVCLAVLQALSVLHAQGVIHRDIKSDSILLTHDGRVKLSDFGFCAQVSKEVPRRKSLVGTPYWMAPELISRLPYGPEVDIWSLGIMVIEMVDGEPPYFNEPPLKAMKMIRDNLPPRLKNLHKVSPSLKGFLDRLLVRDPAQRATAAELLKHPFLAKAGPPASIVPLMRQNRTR
T9 sequence (P07332 561-822 limits assumed): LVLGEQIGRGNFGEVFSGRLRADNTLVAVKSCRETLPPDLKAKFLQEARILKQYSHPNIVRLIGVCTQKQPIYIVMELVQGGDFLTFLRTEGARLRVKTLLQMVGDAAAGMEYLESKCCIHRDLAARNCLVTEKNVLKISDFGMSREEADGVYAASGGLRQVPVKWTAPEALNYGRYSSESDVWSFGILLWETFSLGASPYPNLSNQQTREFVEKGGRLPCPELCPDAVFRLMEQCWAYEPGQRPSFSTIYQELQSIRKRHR
T2 sequence (O96017 220-486 limits assumed): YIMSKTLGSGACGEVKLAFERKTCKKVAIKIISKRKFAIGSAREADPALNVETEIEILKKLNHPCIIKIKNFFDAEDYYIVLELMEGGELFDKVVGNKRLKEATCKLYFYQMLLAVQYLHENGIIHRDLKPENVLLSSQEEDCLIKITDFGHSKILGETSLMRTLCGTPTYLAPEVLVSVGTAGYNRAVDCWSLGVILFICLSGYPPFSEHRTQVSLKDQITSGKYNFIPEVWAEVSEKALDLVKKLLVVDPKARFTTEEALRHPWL
T10 sequence (P07332 448-822 limits assumed): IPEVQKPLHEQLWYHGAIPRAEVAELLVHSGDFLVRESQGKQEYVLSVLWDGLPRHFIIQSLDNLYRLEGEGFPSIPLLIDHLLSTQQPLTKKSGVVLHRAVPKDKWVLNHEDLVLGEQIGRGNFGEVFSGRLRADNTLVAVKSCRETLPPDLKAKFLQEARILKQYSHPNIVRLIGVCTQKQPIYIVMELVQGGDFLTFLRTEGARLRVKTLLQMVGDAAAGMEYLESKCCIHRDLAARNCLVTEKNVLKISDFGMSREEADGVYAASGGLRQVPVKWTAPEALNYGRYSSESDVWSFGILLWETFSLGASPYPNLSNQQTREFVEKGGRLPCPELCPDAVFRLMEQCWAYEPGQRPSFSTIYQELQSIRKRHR
T4 sequence (Q9P286 449-700 limits assumed): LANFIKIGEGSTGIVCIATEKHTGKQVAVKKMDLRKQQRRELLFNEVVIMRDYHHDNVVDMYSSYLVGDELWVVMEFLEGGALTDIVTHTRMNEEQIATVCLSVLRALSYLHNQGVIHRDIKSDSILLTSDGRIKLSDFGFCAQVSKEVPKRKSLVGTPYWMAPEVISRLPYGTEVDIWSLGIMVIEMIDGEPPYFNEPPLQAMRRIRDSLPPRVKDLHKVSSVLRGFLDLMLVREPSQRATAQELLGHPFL
T3 sequence (Q14289 425-683 limits assumed): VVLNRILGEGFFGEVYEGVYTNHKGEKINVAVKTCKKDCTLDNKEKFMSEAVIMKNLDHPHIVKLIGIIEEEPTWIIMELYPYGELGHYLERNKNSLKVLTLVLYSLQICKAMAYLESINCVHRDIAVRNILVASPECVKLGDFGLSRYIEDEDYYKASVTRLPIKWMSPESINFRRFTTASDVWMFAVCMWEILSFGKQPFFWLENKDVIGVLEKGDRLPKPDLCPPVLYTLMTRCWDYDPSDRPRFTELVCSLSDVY

| Structure (SMILES) | Melting temperature (Tm) shift [2] [degrees Celcius] | Melting temperature (Tm) shift [3] [degrees Celcius] | Melting temperature (Tm) shift [4] [degrees Celcius] | Melting temperature (Tm) shift [6] [degrees Celcius] | Melting temperature (Tm) shift [7] [degrees Celcius] | Melting temperature (Tm) shift [9] [degrees Celcius] | Melting temperature (Tm) shift [11] [degrees Celcius] | Melting temperature (Tm) shift [12] [degrees Celcius] | Melting temperature (Tm) shift [13] [degrees Celcius] | Melting temperature (Tm) shift [1] [degrees Celcius] | Melting temperature (Tm) shift [5] [degrees Celcius] | Melting temperature (Tm) shift [8] [degrees Celcius] | Melting temperature (Tm) shift [10] [degrees Celcius] |
| --- | --- | --- | --- | --- | --- | --- | --- | --- | --- | --- | --- | --- | --- |
| CC[C@@H](CO)Nc1nc(NCc2ccccc2)c2ncn(C(C)C)c2n1 (single isomer, unassigned) [Roscovitine, (S)-Isomer] | 0.6 | 0.2 | 0.7 | 0.0 | 0.0 | 1.2 | 2.6 |  |  | 1.4 | 0.3 | 0.0 | 0.9 |
| O=C1NC(=O)c2c1c1c3ccccc3[nH]c1c1[nH]c3ccccc3c21 [Arcyriaflavin A, Synthetic, Arcyriaflavin A] |  |  |  |  |  |  | 0.5 |  |  | 0.2 |  | 0.0 |  |
| O=c1c2ccccc2[nH]c(=S)n1CCN1CCC(=C(c2ccc(F)cc2)c2ccc(F)cc2)CC1 [Diacylglycerol Kinase Inhibitor II] |  |  |  |  |  | 0.7 | 0.2 |  |  |  |  |  |  |
| O=C1c2ccccc2-[n+]2ccc3c([nH]c4ccccc43)c21 [Fascaplysin, Synthetic, Fascaplysin] |  |  |  |  |  | 0.2 |  |  |  |  | 0.4 | 0.1 | 0.0 |

Continued, in another order:

| Melting temperature (Tm) shift [2] [degrees Celcius] | Melting temperature (Tm) shift [3] [degrees Celcius] | Melting temperature (Tm) shift [4] [degrees Celcius] | Melting temperature (Tm) shift [6] [degrees Celcius] | Melting temperature (Tm) shift [7] [degrees Celcius] | Melting temperature (Tm) shift [9] [degrees Celcius] | Melting temperature (Tm) shift [11] [degrees Celcius] | Melting temperature (Tm) shift [12] [degrees Celcius] | Melting temperature (Tm) shift [13] [degrees Celcius] | Structure (SMILES) | Melting temperature (Tm) shift [1] [degrees Celcius] | Melting temperature (Tm) shift [5] [degrees Celcius] | Melting temperature (Tm) shift [8] [degrees Celcius] | Melting temperature (Tm) shift [10] [degrees Celcius] |
| --- | --- | --- | --- | --- | --- | --- | --- | --- | --- | --- | --- | --- | --- |
| 0.3 | 3.2 | 4.1 | 0.3 | 0.4 |  | 0.3 | 0.5 | 0.9 | CN(C)c1nc2c(Br)c(Br)c(Br)c(Br)c2[nH]1 [Casein Kinase II Inhibitor II, DMAT] | 0.2 | 0.4 |  |  |
| 2.2 | 0.1 |  | 1.1 | 0.4 | 0.0 | 0.9 |  | 0.2 | Brc1c(Br)c(Br)c2n[nH]nc2c1Br [Casein Kinase II Inhibitor I] | 0.2 | 0.6 | 0.1 | 0.8 |
| 0.3 |  | 0.0 | 0.2 |  | 0.0 | 0.1 |  | 0.0 | CC#CC(=O)Nc1cc2c(Nc3ccc(F)c(Cl)c3)ncnc2cn1 [EGFR/ErbB-2/ErbB-4 Inhibitor] |  |  | 0.0 |  |

— article PMC4051630, “A Comparison of Protein Kinases Inhibitor Screening Methods Using Both Enzymatic Activity and Binding Affinity Determination” (PLoS ONE, 2014)
